Measurements: ChEMBL document CHEMBL1201862, “PubChem BioAssay data set” (2004)
Active and inactive are the calls of the source.

Key:
Cytochrome P450 1A2 = target: T1, Cytochrome P450 1A2 (Homo sapiens, UniProt P05177);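 note: PubChem cytochrome P450 panel assay, CYP1A2 panel member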
T1 sequence (P05177 whole entry): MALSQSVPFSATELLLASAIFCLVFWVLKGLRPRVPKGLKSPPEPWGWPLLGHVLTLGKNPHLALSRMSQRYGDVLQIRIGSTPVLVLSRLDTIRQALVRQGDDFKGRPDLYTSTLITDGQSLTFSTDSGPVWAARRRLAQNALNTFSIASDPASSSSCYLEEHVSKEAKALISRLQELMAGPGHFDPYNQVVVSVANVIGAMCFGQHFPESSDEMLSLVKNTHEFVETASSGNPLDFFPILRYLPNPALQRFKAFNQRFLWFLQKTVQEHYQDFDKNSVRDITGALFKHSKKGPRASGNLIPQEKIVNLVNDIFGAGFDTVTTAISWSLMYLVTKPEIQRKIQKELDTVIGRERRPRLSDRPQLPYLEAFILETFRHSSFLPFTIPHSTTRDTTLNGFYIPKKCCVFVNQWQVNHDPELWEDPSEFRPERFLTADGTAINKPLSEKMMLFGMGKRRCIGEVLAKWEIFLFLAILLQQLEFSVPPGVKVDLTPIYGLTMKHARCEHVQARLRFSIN

[1] = cytotoxicity toward NIH3T3 fibroblasts, dose response, counter-screen, cell-based, ATP luminescence, mouse fibroblasts (AID 2010); format: functional;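 note: cells exposed to compound for about 90 hours before reading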
[2] = inhibitors of intracellular T. cruzi replication, confirmation, NIH3T3 host cells, beta-gal luminescence (AID 2044); format: functional, cell-based;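 note: intracellular parasites grown in NIH/3T3 mouse fibroblasts as host cells; luminescent beta-galactosidase reporter signal from transgenic T. cruzi replicating inside host cells; inhibitors lower the luminescence signal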
Cytochrome P450 2C19 = Cytochrome P450 2C19 (Homo sapiens, UniProt P33261); experiment: Cytochrome panel assay with activity outcomes. Panel member name: p450-cyp2c19 Compounds with AC50 equal or less than 10 uM are considered active; format: functional
Cytochrome P450 2C19, sequence (P33261 whole entry): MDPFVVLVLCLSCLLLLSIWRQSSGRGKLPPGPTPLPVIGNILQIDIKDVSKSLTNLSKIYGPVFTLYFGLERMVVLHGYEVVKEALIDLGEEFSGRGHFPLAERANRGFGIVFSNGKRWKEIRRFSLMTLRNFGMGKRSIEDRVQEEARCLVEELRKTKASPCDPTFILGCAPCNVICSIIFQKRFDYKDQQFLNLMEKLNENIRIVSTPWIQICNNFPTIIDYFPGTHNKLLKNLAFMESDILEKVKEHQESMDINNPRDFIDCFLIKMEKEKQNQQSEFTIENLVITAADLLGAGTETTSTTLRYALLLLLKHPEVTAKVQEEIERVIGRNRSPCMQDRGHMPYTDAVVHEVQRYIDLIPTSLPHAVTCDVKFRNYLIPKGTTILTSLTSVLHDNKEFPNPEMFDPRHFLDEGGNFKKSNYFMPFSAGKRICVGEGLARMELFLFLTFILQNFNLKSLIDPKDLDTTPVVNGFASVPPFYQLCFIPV

[3] = system: Streptococcus sp. 'group A'; experiment: growth inhibition of control SK(-) GAS strain, dose response, counter-screen for streptokinase expression inhibitor project, luminescence, kanamycin, BacTiterGlo, confirmation (AID 1900); format: functional, organism-based
Streptokinase A = target: T2, Streptokinase A (Streptococcus pyogenes serotype M1, UniProt P10520); experiment: S. pyogenes streptokinase expression inhibitors, potency, dose response, plasminogen activation absorbance, OD405 (AID 1914); format: functional, Streptococcus pyogenes M1 GAS;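 note: secreted streptokinase activity via plasminogen activation per viability signal from cell pellet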
T2 sequence (P10520 whole entry): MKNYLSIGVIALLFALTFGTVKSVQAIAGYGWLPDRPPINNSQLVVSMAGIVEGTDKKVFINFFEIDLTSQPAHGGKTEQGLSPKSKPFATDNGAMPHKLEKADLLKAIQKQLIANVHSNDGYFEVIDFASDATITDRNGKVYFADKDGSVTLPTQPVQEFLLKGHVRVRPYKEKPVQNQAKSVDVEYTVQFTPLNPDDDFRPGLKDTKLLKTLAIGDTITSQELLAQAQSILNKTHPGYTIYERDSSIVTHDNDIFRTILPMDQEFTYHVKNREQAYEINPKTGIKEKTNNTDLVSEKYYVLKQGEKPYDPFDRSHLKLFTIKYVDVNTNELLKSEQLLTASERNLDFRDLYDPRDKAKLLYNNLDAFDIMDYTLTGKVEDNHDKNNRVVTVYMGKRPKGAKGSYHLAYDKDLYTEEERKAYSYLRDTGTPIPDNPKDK

Streptococcus = experiment: Group A Streptococcus viability loss, dose response, counter-screen for streptokinase expression inhibitor project, luminescence, BacTiterGlo (AID 1915); format: functional, organism-based;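 note: potency for reduction of bacterial viability or growth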
[4] = Luminescence Cell-Based Dose Response HTS to Identify Activators of Luciferase Translation or Activity in H4 […] Cells. [Related pubchem assays: 1829 (Project Summary), 1814 (Primary HTS)]; format: functional
H4 = experiment: Luminescence Cell-Based Dose Response HTS to Identify Activators of 5'UTR Stem-Loop Driven Prion Protein mRNA Translation in H4 Neuroglioblastoma Cells. [Related pubchem assays: 1829 (Project Summary), 1814 (Primary HTS)]; format: functional; conditions: Homo sapiens

NCCc1ccc(S(=O)(=O)F)cc1
AC50 (Cytochrome P450 1A2): 15.8 µM (inconclusive)

Cc1ccc(Nc2ccc([N+](=O)[O-])nc2[N+](=O)[O-])cc1
EC50 [1]: > 60 µM (not active) | EC50 [2]: 1.57 µM (active)

CCOC(=O)c1cnn(-c2cc(Oc3ccccc3)ncn2)c1N
AC50 (Cytochrome P450 2C19; read-out: AC50): 31.6 µM (inconclusive) | AC50 (Cytochrome P450 1A2): 14.1 µM (inconclusive)

Cc1ccc(S(=O)(=O)N(C(=N)N)c2nc(N(C)C)nc(N(C)C)n2)cc1
EC50 [1]: > 60 µM (not active) | EC50 [2]: 0.879 µM (active)

C[C@@H](Cc1ccccc1)NCCC(c1ccccc1)c1ccccc1
AC50 (Cytochrome P450 2C19; read-out: AC50): 7.94 µM (inconclusive) | AC50 (Cytochrome P450 1A2): 15.8 µM (inconclusive)

CCOc1ccc(CN2CCN(Cc3cccc4nonc34)CC2CCO)cc1 (stereo unspecified)
EC50 [1]: > 60 µM (not active) | EC50 [2]: 0.559 µM (active)

CCCCCCn1c(=O)c(C(=O)Nc2c(C)n(C)n(-c3ccccc3)c2=O)c(O)c2ccccc21
EC50 [3]: 3.09 µM (active) | EC50 (Streptokinase A): 3.63 µM (active) | EC50 (Streptococcus): 8.06 µM (active)

Oc1ccc(-c2nc3c4c(ncn3n2)-c2ccccc2CC42CCCC2)cc1
EC50 [3]: 0.909 µM (active) | EC50 (Streptococcus): 0.936 µM (active)

CCSc1n[nH]c2c3cccc(C)c3nc-2n1
EC50 [4]: 2.08 µM (active) | EC50 (H4): > 120 µM (not active)

CCN1CCC2(CC1)NC(CO)(CO)CO2
AC50 (Cytochrome P450 2C19): inconclusive

CCN=C(S)NNC(=O)c1cc(C)on1
AC50 (Cytochrome P450 2C19; read-out: AC50): 7.94 µM (inconclusive)

Cc1c(Cl)cccc1NC(=O)COC(=O)c1c2c(nc3ccccc13)CCN(Cc1ccccc1)C2
EC50 [1]: > 60 µM (not active) | EC50 [2]: 1.63 µM (active)

CC(C)(C)CNC(CO)C12CC3CC(CC(C3)C1)C2 (stereo unspecified)
AC50 (Cytochrome P450 2C19; read-out: AC50): 15.8 µM (inconclusive)

COc1ccc(CCNC(=O)CCCCCN2C(=O)c3ccccc3C2=O)cc1
AC50 (Cytochrome P450 1A2): 25.1 µM (inconclusive)

c1ccc(Nc2ccc3c4c(cccc24)CC3)cc1
EC50 [1]: 59.5 µM (active) | EC50 [2]: 0.97 µM (active)

CCOC(=O)c1ccc(OC(=O)CCCCCNC(=N)N)cc1
AC50 (Cytochrome P450 1A2): 12.6 µM (inconclusive)

COc1ccc(-c2cc3n(n2)CCc2nc4ccccc4n2-3)cc1
EC50 [4]: 10.5 µM (active) | EC50 (H4): 12.5 µM (active)

O=C(NCc1ccccc1)C(=O)NCC1OCCN1S(=O)(=O)c1ccc([N+](=O)[O-])cc1 (stereo unspecified)
EC50 [1]: > 60 µM (not active) | EC50 [2]: 0.782 µM (active)

CCCCCCOC(=O)C(C#N)c1nc2ccccc2nc1N1CCN(C)CC1 (stereo unspecified)
EC50 [1]: 11.3 µM (active) | EC50 [2]: 2.57 µM (active)

COC(=O)[C@@]1(Cc2ccc(F)cc2)[C@@H]2[C@@H](CC(=O)[C@H]2CC(=O)C(=O)N(C)C)CN1C(=O)c1ccccc1
AC50 (Cytochrome P450 2C19; read-out: AC50): 39.8 µM (inconclusive)

COc1ccccc1OCCCn1c(C)c(C#N)c2ccccc21
EC50 [3]: 21.2 µM (active) | EC50 (Streptokinase A): 23.2 µM (active) | EC50 (Streptococcus): > 150 µM (not active)

Cc1cccc(N2CCN(C(=O)C34CC5CC(CC(C5)C3)C4)CC2)c1C
EC50 [3]: 3.81 µM (active) | EC50 (Streptokinase A): 15.2 µM (active) | EC50 (Streptococcus): 11.3 µM (active)

COC(=O)C1=CN(c2ccc(OC)cc2)C=C(C(=O)OC)C1c1ccc([N+](=O)[O-])cc1
EC50 [1]: > 30 µM (not active) | EC50 [2]: 1.94 µM (active)

Cn1c(O)c(C(c2ccccn2)c2c(O)n(C)c(=S)[nH]c2=O)c(=O)[nH]c1=S
AC50 (Cytochrome P450 2C19; read-out: AC50): 0.316 µM (inconclusive)

Cc1ccc(C)c(C(=O)COC(=O)c2cc(Cl)nc3ccccc23)c1
EC50 [3]: 60.6 µM (active) | EC50 (Streptokinase A): 19.4 µM (active) | EC50 (Streptococcus): > 150 µM (not active)

O=C(NCCCN1CCCC1)C1CCN(C(=O)c2cc3sccc3n2Cc2ccc(F)cc2)CC1
EC50 [1]: > 60 µM (not active) | EC50 [2]: 1.32 µM (active)

Cc1cc(NC(=O)/C=C/c2ccccc2Cl)no1
EC50 [4]: 118 µM (active) | EC50 (H4): 9.55 µM (active)

CC1c2ccccc2SC(CCCN(C)C)c2ccccc21 (stereo unspecified)
EC50 [1]: > 60 µM (not active) | EC50 [2]: 0.639 µM (active)

CCn1ccc(C(=O)NC2C(=O)N3C(C(=O)O)=C(C)CSC23)n1 (stereo unspecified)
AC50 (Cytochrome P450 2C19; read-out: AC50): 14.1 µM (inconclusive)

N=C(Cc1ccc(Cl)cc1)NOC(=O)c1cccc2ccccc12
EC50 [1]: > 60 µM (not active) | EC50 [2]: 0.81 µM (active)

COc1ccc(-c2nnc(NC(=O)C3CCCN3S(=O)(=O)c3cccs3)o2)cc1 (stereo unspecified)
EC50 [3]: > 150 µM (not active) | EC50 (Streptokinase A): > 150 µM (not active) | EC50 (Streptococcus): > 150 µM (not active)

Cc1c(C(=O)Nc2cccc([N+](=O)[O-])c2)csc1-c1ccccc1
EC50 [1]: > 60 µM (not active) | EC50 [2]: 1.43 µM (active)

CN1C2C=C3C(C#N)=C(N)C(C#N)(C#N)[C@H](c4c(F)cccc4F)[C@H]3C1CC2 (stereo partly specified)
AC50 (Cytochrome P450 2C19; read-out: AC50): 22.4 µM (inconclusive)

CCN1CC=C2C(C#N)=C(N)C(C#N)(C#N)[C@H](c3ccoc3)[C@H]2C1
AC50 (Cytochrome P450 2C19; read-out: AC50): 39.8 µM (inconclusive) | AC50 (Cytochrome P450 1A2): 39.8 µM (inconclusive)

COc1ccc(-c2cnnn2-c2ccc(NC(=O)c3ccco3)cc2)cc1OC
AC50 (Cytochrome P450 1A2): 14.1 µM (inconclusive)

Cc1cc(=O)c(C(=O)O)cn1Nc1ccc(Cl)cc1
EC50 [3]: 3.15 µM (active) | EC50 (Streptokinase A): > 150 µM (not active) | EC50 (Streptococcus): 14.5 µM (active)

CC1(C)Cc2c(sc3nc(-c4cc5ccccc5o4)n(N)c(=O)c23)CO1
EC50 [4]: 0.817 µM (active) | EC50 (H4): > 120 µM (inconclusive)

Cc1ccc(-c2[nH]nc(N)c2N=Nc2ccccc2C)cc1
EC50 [3]: 2.63 µM (active) | EC50 (Streptokinase A): > 150 µM (not active) | EC50 (Streptococcus): 8.03 µM (active)

CS(=O)(=O)c1ccc(/C=N\NC(N)=S)cc1
AC50 (Cytochrome P450 1A2): 5.01 µM (inconclusive)

CC1CCCN(C(=O)C(=O)c2cn(CC(=O)N3CCCCCC3)c3ccccc23)C1 (stereo unspecified)
EC50 [1]: > 60 µM (not active) | EC50 [2]: 0.765 µM (active)

CC(C)CN=C(S)N1CCN(C)CC1
AC50 (Cytochrome P450 2C19; read-out: AC50): 39.8 µM (inconclusive)

COc1cc(/C=C/C(=O)OC2CC3CCC2(C)C3(C)C)ccc1O (stereo unspecified)
EC50 [3]: 6.88 µM (active) | EC50 (Streptokinase A): 7.32 µM (active) | EC50 (Streptococcus): 6.7 µM (active)

COC(=O)[C@@H]1CC[C@H](C)[C@@H](c2ccc(C)cc2)N1C(=O)c1ccc(/C=N\OC[C@@H](C)[C@H](OCc2ccccc2)C(C)C)cc1
AC50 (Cytochrome P450 2C19; read-out: AC50): 6.31 µM (inconclusive)

O=C(Nc1cccc(Cl)c1N1CCCC1)c1ccc(Br)o1
EC50 [3]: 4.12 µM (active) | EC50 (Streptokinase A): > 150 µM (not active) | EC50 (Streptococcus): 6.85 µM (active)

COc1ccc(-n2c(=O)c(CCc3ccccc3)nc3cnc(N4CCOCC4)nc32)cc1
AC50 (Cytochrome P450 2C19; read-out: AC50): 25.1 µM (inconclusive) | AC50 (Cytochrome P450 1A2): 15.8 µM (inconclusive)

O=c1c2cc(N3CCOCC3)ccc2[nH]c(=S)n1CCc1ccccc1
EC50 [3]: 0.447 µM (active) | EC50 (Streptokinase A): > 150 µM (not active) | EC50 (Streptococcus): 12.3 µM (active)

COc1ccc(NC(=O)C2CC(=O)NC3=C2C(=O)CC(C)(C)C3)cc1 (stereo unspecified)
AC50 (Cytochrome P450 2C19; read-out: AC50): 39.8 µM (inconclusive)

Cc1cc(C)c(S(C)(=O)=O)c(Oc2ccc(F)cc2)n1
AC50 (Cytochrome P450 2C19; read-out: AC50): 20 µM (inconclusive)

Cc1cc2c(O)nc(N)nc2nc1C
AC50 (Cytochrome P450 1A2): 6.31 µM (inconclusive)

O=C(CCC(=O)Nc1cc(C(F)(F)F)ccc1Cl)N/N=C\c1cc([N+](=O)[O-])ccc1O
EC50 [3]: 0.675 µM (active) | EC50 (Streptococcus): 1.44 µM (active)

CSc1nc(O)c2c(n1)N=C(C)/C(=C(/O)OC(C)C)C2c1ccncc1 (stereo unspecified)
AC50 (Cytochrome P450 1A2): 20 µM (inconclusive)

C[C@H]1[C@H](C)CC[C@]2(C)CC[C@]3(C)C(=CC[C@@H]4[C@@]5(C)CC[C@@H](O)[C@](C)(C(=O)O)[C@@H]5CC[C@]43C)[C@H]12 [BOSWELLIC ACID]
EC50 [3]: 0.705 µM (active) | EC50 (Streptococcus): 0.963 µM (active)
